# Assay results as given in patent US20240269139A1, “COMPOUNDS FOR TARGETED PROTEIN DEGRADATION OF KINASES” (DANA-FARBER CANCER INSTITUTE, INC., priority 2020, published 2024).
# Like-named read-outs stand apart in the source and are kept apart here.
# Assays:
# Assay type in all cases: cell-based
# [1] = target: protein kinases (human kinome) (Homo sapiens, UniProt Q00535)
# Excerpt: (§1) Although development of targeted protein degraders requires a POI binder, among already-liganded proteins such as kinases, it was hypothesized that different targets would have a different propensity for current approaches to degrader-mediated destruction, which was termed ‘degradability’. […] It was rationalized that the probability of identifying the same kinase as a false positive in multiple treatments is low, therefore this analysis served to also assess the robustness of our data and subsequent interpretations. […] Overall, 62 protein kinases were degraded in more than 10 independent treatments, and remarkably, 9 of these (CDK4, AURKA, FER, WEE1, BLK. LIMK2, CDK6, GAK, LIMK1) were each degraded in at least 40 of the 154 independent treatments, emphasizing their predisposition to induced degradation (FIG. 1G; Appendix I).
# (§2) Next, the frequency of degradation assessment was corrected for over-representation of molecules in the full dataset by omitting replicate profiling of compounds under different experimental conditions, to remove any bias. […] Unsurprisingly, the top degradable kinases mirror those from the previous analysis (CDK4, AURKA, FER, WEE1, BLK), confirming that in sufficiently large datasets, even with over-representation of certain molecules, frequency of degradation is a good measure of general tractability.
# [2] = target: protein kinases (human kinome) (Homo sapiens, UniProt P24941)
# Excerpt: as §1, §2
# [3] = target: protein kinases (human kinome) (Homo sapiens, UniProt P50613); conditions: for logFC: CDK7 (P50613) protein abundance, degrader vs DMSO, down; for logFC CDK7: CDK7 P50613
# Excerpt: as §1, §2
# [4] = target: protein kinases (human kinome) (Homo sapiens, UniProt P06493); conditions: CDK1 P06493; experiment wp146
# Excerpt: as §1, §2
# [5] = target: T1, protein kinases (human kinome) (Homo sapiens, UniProt O14965)
# T1 sequence (O14965 1-403): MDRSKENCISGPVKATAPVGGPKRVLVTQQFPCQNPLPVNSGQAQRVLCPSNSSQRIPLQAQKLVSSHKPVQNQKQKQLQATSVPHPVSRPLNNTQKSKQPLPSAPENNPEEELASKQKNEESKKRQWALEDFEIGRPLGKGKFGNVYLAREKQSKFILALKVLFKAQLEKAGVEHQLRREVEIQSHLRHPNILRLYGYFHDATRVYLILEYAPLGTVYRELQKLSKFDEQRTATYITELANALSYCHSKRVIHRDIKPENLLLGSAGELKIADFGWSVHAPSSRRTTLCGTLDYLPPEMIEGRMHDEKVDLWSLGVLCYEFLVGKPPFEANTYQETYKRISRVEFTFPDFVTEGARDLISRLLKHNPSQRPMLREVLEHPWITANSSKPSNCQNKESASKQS
# Excerpt: as §1, §2
# [6] = target: protein kinases (human kinome) (Homo sapiens, UniProt Q9NYV4)
# Excerpt: as §1, §2
# [7] = system: protein kinases (human kinome); conditions: for logFC: CDK9 (P50750-2) protein abundance, degrader vs DMSO, down; for logFC GSK3B: experiment wp056; for logFC CSNK1D: experiment wp114
# Excerpt: as §1, §2
# [8] = target: protein kinases (human kinome) (Homo sapiens, UniProt P45984); conditions: MAPK9 P45984-1; experiment wp146
# Excerpt: as §1, §2
# [9] = target: protein kinases (human kinome) (Homo sapiens, UniProt Q00537); conditions: for logFC of CDK17: Accession Q00537; for logFC CDK17 (Q00537): direction of change down
# Excerpt: as §1, §2
# [10] = target: protein kinases (human kinome) (Homo sapiens, UniProt Q2M2I8)
# Excerpt: as §1, §2
# [11] = target: protein kinases (human kinome) (Homo sapiens, UniProt P49840); conditions: GSK3A P49840; experiment wp056
# Excerpt: as §1, §2
# [12] = target: protein kinases (human kinome) (Homo sapiens, UniProt Q9NSY1); conditions: BMP2K Q9NSY1; experiment wp056
# Excerpt: as §1, §2
# [13] = target: protein kinases (human kinome) (Homo sapiens, UniProt Q8TDR2); conditions: experiment wp114
# Excerpt: as §1, §2
# [14] = target: protein kinases (human kinome) (Homo sapiens, UniProt P30291); conditions: experiment wp016
# Excerpt: as §1, §2
# [15] = target: protein kinases (human kinome) (Homo sapiens, UniProt P51451)
# Excerpt: as §1, §2
# [16] = target: protein kinases (human kinome) (Homo sapiens, UniProt P53671); conditions: experiment wp016
# Excerpt: as §1, §2
# [17] = target: T2, protein kinases (human kinome) (Homo sapiens, UniProt Q08881); conditions: experiment wp016
# T2 sequence (Q08881 1-620): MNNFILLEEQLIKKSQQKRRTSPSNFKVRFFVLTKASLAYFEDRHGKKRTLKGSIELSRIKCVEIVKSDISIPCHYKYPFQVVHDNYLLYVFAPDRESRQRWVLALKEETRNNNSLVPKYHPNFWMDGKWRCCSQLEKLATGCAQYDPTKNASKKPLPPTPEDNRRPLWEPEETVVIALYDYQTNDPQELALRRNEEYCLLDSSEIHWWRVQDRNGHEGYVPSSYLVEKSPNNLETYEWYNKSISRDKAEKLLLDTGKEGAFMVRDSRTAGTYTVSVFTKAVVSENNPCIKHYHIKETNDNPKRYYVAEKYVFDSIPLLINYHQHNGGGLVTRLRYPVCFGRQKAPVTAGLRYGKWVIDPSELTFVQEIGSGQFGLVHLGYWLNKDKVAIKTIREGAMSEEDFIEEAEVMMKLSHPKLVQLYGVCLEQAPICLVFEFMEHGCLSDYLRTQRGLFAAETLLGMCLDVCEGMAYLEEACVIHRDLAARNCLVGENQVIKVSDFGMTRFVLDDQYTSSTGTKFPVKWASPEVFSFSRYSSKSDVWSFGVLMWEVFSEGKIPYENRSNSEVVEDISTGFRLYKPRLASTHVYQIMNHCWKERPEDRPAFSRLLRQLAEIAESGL
# Excerpt: as §1, §2
# [18] = target: protein kinases (human kinome) (Homo sapiens, UniProt Q14289)
# Excerpt: as §1, §2
# [19] = target: protein kinases (human kinome) (Homo sapiens, UniProt P16591); conditions: for logFC of FER (P16591-1): down; for logFC of FER: FER P16591-1
# Excerpt: as §1, §2
# [20] = target: protein kinases (human kinome) (Homo sapiens, UniProt Q05397); conditions: experiment wp011
# Excerpt: as §1, §2
# [21] = experiment wp146, direction of change down
# [22] = experiment wp016, direction of change down
# protein kinases (human kinome) (Homo sapiens, UniProt P50613), sequence (P50613 whole entry): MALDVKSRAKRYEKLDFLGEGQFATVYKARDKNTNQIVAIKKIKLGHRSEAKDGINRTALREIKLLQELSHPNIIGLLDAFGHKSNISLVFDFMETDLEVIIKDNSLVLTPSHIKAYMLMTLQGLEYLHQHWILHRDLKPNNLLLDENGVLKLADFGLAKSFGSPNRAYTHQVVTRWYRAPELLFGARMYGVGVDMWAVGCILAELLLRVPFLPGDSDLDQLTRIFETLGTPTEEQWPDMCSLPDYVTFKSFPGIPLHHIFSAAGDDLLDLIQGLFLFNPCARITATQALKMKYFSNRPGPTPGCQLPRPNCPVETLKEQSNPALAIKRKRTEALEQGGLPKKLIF
# protein kinases (human kinome) (Homo sapiens, UniProt Q2M2I8), sequence (Q2M2I8 whole entry): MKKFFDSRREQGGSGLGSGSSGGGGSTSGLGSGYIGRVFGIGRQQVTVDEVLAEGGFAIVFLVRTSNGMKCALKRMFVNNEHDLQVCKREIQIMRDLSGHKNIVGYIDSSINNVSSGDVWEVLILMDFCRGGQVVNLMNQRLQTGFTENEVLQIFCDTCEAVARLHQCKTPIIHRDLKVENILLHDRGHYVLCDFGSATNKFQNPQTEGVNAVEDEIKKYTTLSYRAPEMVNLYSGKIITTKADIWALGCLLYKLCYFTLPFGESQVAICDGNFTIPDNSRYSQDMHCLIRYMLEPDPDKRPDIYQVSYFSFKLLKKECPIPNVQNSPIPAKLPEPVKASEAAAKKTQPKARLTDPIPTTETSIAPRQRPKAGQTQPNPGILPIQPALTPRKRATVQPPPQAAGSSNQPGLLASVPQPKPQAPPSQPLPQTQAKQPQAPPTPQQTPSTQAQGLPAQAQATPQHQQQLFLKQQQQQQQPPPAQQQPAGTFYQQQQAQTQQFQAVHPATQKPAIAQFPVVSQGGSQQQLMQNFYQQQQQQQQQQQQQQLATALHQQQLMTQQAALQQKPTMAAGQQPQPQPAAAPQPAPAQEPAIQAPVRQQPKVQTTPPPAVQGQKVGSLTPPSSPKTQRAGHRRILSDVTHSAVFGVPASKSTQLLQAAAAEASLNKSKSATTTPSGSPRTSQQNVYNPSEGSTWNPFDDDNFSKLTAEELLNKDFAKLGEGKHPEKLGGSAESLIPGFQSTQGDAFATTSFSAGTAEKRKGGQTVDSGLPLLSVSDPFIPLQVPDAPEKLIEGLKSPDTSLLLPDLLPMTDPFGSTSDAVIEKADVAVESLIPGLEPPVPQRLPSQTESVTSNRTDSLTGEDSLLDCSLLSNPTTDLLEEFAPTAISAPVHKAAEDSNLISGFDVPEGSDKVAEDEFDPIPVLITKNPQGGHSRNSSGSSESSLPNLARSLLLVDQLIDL
# protein kinases (human kinome) (Homo sapiens, UniProt Q00537), sequence (Q00537 whole entry): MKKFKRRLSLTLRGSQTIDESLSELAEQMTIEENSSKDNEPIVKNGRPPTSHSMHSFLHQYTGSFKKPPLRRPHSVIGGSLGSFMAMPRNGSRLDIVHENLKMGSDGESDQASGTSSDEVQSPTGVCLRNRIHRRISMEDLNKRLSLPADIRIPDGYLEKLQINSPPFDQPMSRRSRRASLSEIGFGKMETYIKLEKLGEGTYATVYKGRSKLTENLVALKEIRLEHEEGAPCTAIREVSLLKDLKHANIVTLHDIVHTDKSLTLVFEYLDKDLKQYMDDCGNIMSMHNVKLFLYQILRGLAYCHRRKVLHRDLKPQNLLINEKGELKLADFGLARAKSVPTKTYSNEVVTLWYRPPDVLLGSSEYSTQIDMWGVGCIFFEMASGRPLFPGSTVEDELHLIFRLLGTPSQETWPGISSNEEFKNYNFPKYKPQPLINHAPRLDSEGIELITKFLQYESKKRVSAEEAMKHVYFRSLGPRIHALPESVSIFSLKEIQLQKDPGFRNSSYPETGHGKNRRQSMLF
# protein kinases (human kinome) (Homo sapiens, UniProt Q9NYV4), sequence (Q9NYV4 whole entry): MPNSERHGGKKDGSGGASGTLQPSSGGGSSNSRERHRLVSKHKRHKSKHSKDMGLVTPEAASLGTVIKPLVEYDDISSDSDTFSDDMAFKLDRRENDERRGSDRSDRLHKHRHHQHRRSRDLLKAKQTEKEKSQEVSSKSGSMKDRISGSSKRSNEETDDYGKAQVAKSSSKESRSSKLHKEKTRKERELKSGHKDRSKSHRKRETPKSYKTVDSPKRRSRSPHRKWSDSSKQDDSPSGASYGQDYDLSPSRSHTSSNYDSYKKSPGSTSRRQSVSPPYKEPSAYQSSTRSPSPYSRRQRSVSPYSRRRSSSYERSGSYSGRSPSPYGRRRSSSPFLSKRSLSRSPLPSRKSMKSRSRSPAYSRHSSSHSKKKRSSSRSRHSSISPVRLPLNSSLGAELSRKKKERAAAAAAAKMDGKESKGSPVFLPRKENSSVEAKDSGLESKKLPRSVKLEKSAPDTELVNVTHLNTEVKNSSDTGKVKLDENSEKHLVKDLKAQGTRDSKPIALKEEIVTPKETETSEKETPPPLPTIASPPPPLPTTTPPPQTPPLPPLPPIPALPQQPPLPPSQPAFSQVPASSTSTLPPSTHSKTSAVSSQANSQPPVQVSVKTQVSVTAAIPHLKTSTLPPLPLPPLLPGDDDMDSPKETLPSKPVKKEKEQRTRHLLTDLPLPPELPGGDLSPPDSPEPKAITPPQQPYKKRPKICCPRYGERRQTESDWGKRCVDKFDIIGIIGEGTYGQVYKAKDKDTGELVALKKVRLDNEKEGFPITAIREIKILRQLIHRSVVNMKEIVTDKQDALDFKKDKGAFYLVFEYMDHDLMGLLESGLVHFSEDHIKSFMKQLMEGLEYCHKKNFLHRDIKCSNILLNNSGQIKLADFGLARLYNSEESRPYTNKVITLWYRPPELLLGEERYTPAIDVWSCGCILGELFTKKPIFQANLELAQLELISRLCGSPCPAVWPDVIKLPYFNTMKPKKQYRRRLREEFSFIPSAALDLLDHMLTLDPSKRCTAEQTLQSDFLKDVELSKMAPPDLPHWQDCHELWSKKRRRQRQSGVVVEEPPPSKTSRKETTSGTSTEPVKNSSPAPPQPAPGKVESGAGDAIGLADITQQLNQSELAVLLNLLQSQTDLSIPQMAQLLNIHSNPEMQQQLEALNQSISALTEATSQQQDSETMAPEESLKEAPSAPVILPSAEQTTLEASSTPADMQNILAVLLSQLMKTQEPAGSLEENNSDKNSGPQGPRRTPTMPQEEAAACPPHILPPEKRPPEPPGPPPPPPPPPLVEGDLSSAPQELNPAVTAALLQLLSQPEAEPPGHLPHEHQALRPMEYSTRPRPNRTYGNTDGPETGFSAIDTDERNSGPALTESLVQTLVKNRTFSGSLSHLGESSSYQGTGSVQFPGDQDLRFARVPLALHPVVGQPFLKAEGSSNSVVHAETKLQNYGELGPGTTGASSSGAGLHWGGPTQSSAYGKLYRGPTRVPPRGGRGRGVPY
# protein kinases (human kinome) (Homo sapiens, UniProt P16591), sequence (P16591 whole entry): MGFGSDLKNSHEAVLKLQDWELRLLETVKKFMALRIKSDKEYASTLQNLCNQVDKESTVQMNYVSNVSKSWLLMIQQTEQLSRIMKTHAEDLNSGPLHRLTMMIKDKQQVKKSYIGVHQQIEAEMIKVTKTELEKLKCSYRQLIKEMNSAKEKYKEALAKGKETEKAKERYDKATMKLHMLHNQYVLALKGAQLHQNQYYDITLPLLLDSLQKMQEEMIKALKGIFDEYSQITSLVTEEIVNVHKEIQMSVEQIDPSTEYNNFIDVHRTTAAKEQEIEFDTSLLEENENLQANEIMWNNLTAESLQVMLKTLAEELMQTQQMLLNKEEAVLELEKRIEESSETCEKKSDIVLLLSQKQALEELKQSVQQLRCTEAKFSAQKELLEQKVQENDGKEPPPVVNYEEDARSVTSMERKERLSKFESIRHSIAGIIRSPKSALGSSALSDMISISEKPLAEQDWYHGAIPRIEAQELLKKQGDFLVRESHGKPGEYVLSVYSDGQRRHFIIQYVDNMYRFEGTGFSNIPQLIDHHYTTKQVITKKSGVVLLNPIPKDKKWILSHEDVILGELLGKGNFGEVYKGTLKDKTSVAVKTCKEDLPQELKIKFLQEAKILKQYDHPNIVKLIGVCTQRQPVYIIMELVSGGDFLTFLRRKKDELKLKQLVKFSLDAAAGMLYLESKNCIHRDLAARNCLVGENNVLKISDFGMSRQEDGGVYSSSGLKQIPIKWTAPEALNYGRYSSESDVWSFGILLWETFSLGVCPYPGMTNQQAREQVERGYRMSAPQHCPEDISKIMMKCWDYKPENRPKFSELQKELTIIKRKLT
# protein kinases (human kinome) (Homo sapiens, UniProt Q00535), sequence (Q00535 whole entry): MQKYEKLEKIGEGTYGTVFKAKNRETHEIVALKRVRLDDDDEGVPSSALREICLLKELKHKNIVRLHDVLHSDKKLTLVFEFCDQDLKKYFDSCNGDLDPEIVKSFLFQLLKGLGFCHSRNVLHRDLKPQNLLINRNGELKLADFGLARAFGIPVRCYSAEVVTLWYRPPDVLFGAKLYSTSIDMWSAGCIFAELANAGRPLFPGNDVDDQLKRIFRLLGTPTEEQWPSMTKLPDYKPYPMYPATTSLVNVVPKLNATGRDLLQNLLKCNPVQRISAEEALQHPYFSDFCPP
# protein kinases (human kinome) (Homo sapiens, UniProt P49840), sequence (P49840 whole entry): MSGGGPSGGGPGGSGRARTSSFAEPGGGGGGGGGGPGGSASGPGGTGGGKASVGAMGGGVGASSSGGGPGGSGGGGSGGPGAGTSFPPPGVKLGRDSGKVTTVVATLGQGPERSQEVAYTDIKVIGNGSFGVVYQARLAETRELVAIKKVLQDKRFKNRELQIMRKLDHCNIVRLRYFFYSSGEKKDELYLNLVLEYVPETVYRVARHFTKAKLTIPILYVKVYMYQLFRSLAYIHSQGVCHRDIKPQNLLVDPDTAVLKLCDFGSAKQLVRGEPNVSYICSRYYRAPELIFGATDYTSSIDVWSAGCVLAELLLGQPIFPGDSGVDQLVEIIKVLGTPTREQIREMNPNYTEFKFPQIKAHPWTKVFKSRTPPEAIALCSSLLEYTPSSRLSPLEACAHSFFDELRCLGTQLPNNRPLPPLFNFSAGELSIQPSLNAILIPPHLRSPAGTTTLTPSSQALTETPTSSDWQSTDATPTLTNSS
compound,measurement,setting,value
NC(=O)c1c(F)cccc1Nc1nc(NC2CCN(S(=O)(=O)CCNC(=O)CCCCCCCCOc3cccc4c3C(=O)N(C3CCC(=O)NC3=O)C4=O)CC2)ncc1Br (centres unmarked) [TMX.01.160],logFC CDK5 (Q00535),[1]; experiment wp146,−2.901
same,logFC CDK5 (Q00535),[1]; [21],−2.901
same,logFC CDK2 (P24941-1),[2]; experiment wp146,−1.971
same,logFC CDK2 (P24941-1),[2]; [21],−1.971
same,logFC,[3],−0.601
same,logFC CDK7,[3]; experiment wp146,−0.601
same,logFC,[4],−1.423
same,logFC CDK1,[4],−1.423
same,logFC AURKA (O14965),[5]; experiment wp146,−2.621
same,logFC CDK12,"[6]; Accession Q9NYV4-1, experiment wp146",−0.5118
same,logFC CDK12,"[6]; CDK12 (Q9NYV4-1), experiment wp146",−0.5118
same,logFC,[7],−1.181
same,logFC MAPK8 (P45983-4),"[7]; Experiment wp146, direction down",−2.112
same,logFC MAPK8,"[7]; MAPK8 P45983-4, experiment wp146",−2.112
same,logFC RPS6KA1,"[7]; RPS6KA1 (Q15418-2), experiment wp146",−0.4317
same,logFC CDK9 (P50750-2),[7]; experiment wp146,−1.181
same,logFC CDK16 (Q00536-2),[7]; experiment wp146,−1.11
same,logFC RPS6KA1 (Q15418-2),[7]; experiment wp146,−0.4317
same,logFC,[8],−3.32
same,logFC MAPK9,[8],−3.32
same,logFC of CDK17,[9]; experiment wp146,−1.627
same,logFC CDK17 (Q00537),[9]; experiment wp146,−1.627
N#CCc1ccc(Nc2nc(NCCCNC(=O)CCCCCCNC(=O)COc3cccc4c3C(=O)N(C3CCC(=O)NC3=O)C4=O)cc(Nc3cc(C4CC4)n[nH]3)n2)cc1 (centres unmarked) [SB1.G.190],logFC AAK1,"[10]; AAK1 (Q2M218-1), experiment wp056, down",−1.489
same,logFC AAK1,"[10]; AAK1, accession Q2M218-1, experiment wp056, direction of change down",−1.489
same,logFC,[11],−0.8894
same,logFC GSK3A,[11],−0.8894
same,logFC AURKA (O14965),[5]; experiment wp056,−0.843
same,logFC GSK3B,"[7]; Accession P49841-2, direction down",−0.631
same,logFC GSK3B,[7]; GSK3B P49841-2,−0.631
same,logFC,[12],−0.3508
same,logFC BMP2K,[12],−0.3508
Nc1ncc(-c2ccc(S(=O)(=O)N(CCCNC(=O)CCOCCOCCOCCOCCOCCNc3cccc4c3C(=O)N(C3CCC(=O)NC3=O)C4=O)C3CC3)cc2)cc1-c1ccc2c(c1)CCNC2=O (centres unmarked) [WH.10414.099],logFC CSNK1D,"[7]; Accession P48730-2, direction down",−0.6187
same,logFC CSNK1D,[7]; CSNK1D P48730-2,−0.6187
same,logFC STK35,"[13]; Accession Q8TDR2, direction down",−0.8902
same,logFC STK35,[13]; STK35 (Q8TDR2),−0.8902
CC(C)S(=O)(=O)c1ccccc1Nc1nc(Nc2ccc(N3CCN(CCOCCOCCOCCNC(=O)CNc4cccc5c4C(=O)N(C4CCC(=O)NC4=O)C5=O)CC3)cc2)ncc1Cl (centres unmarked) [SK.3.87],logFC AAK1,"[10]; AAK1 (Q2M218-1), experiment wp016, down",−0.7307
same,logFC AAK1,"[10]; AAK1, accession Q2M218-1, experiment wp016, direction of change down",−0.7307
same,logFC WEE1 (P30291-1),[14],−0.9273
same,logFC of CDK5,"[1]; Accession Q00535, experiment wp016",−0.5732
same,logFC CDK5 (Q00535),[1]; [22],−0.5732
same,logFC CDK2 (P24941-1),[2]; experiment wp016,−0.3797
same,logFC CDK2 (P24941-1),[2]; [22],−0.3797
same,logFC,[3],−0.5325
same,logFC CDK7,[3]; experiment wp016,−0.5325
same,logFC AURKA (O14965),[5]; experiment wp016,−1.381
same,logFC CDK12,"[6]; Accession Q9NYV4-1, experiment wp016",−0.5073
same,logFC CDK12,"[6]; CDK12 (Q9NYV4-1), experiment wp016",−0.5073
same,logFC of BLK,"[15]; BLK P51451, experiment wp016",−0.9329
same,logFC of BLK (P51451),"[15]; Experiment wp016, down",−0.9329
same,logFC,[7],−0.4714
same,logFC LCK,"[7]; LCK, accession P06239-3, experiment wp016, direction of change down",−0.3484
same,logFC CDK9 (P50750-2),[7]; experiment wp016,−0.4714
same,logFC LCK (P06239-3),[7]; [22],−0.3484
same,logFC LIMK2,"[16]; LIMK2 (P53671), down",−0.378
same,logFC of LIMK2,[16]; LIMK2 P53671,−0.378
same,logFC ITK (Q08881),[17],−1.868
same,logFC ITK (Q08881),[17]; direction of change down,−1.868
same,logFC,"[18]; PTK2B (Q14289-1) protein abundance, degrader vs DMSO, down",−3.217
same,logFC PTK2B,"[18]; PTK2B, accession Q14289-1, experiment wp016, direction of change down",−3.217
same,logFC of CDK17,[9]; experiment wp016,−0.6139
same,logFC CDK17 (Q00537),[9]; experiment wp016,−0.6139
same,logFC of FER (P16591-1),[19]; Experiment wp016,−1.97
same,logFC of FER,[19]; experiment wp016,−1.97
COc1cc(N2CCN(CCOCCOCCNC(=O)CNc3cccc4c3C(=O)N(C3CCC(=O)NC3=O)C4=O)CC2)ccc1Nc1ncc(Cl)c(Nc2ccccc2S(=O)(=O)C(C)C)n1 (centres unmarked) [TL13.12],logFC PTK2,"[20]; Accession Q05397, direction down",−1.365
same,logFC PTK2,[20]; PTK2 Q05397,−1.365
same,logFC AURKA (O14965),[5]; experiment wp011,−0.5988
same,logFC of FER (P16591-1),[19]; Experiment wp011,−0.8459
same,logFC of FER,[19]; experiment wp011,−0.8459
